Laboratory results from patent US6359181B1, “Cyclopentane 1-hydroxy alkyl or alkenyl-2-one or 2-hydroxy derivatives as therapeutic agents” (Allergan Sales, Inc., priority 2000, dated 2002).

Legend:
Dog intraocular pressure = assay: Intraocular pressure in dogs by applanation pneumatonometry; type: in vivo; settings: 25 μl to the ocular surface, IOP before and at 6 hours after administration, FIG. 9
Procedure: The compounds were prepared at the said concentrations in a vehicle comprising 0.1% polysorbate 80 and 10 mM TRIS base. Dogs were treated by administering 25 μl to the ocular surface, the contralateral eye received vehicle as a control. Intraocular pressure was measured by applanation pneumatonometry. Dog intraocular pressure was measured immediately before drug administration and at 6 hours thereafter.

ocular surface = settings: topical ocular use in humans; cited from earlier work
intraocular pressure = settings: ocular; compared with PGF2α; cited from earlier work

In the case of CC(=O)OCC(=O)CCC/C=C\C[C@@H]1[C@@H](/C=C/[C@@H](O)CCc2ccc(Cl)s2)[C@H](O)C[C@@H]1O [Example 101, Acetic Acid (Z)-8-{(1R,2R,3R,5S)-2-[(S)-(E)-5-(5-chloro-thiophen-2-yl)-3-hydroxy-pent-1-enyl]-3,5-dihydroxy-cyclopentyl}-2-oxo-oct-6-enyl Ester], the ocular hypotensive effect (Dog intraocular pressure) is reported as “pronounced ocular hypotensive effect”.

For CCCCC[C@H](O)/C=C/[C@@H]1[C@@H](C/C=C\CCCC(=O)O)[C@@H](O)C[C@H]1O [PGF2α, (Z)-7-[(1R,2R,3R,5S)-3,5-Dihydroxy-2-((S)-(E)-3-hydroxyoct-1-enyl)-cyclopentyl]hept-5-enoic Acid], the ocular side effects (ocular surface) is listed as “ocular surface (conjunctival) hyperemia and foreign-body sensation”.

In the case of CC(=O)OCC(=O)CCC/C=C\C[C@@H]1[C@@H](/C=C/[C@@H](O)CCc2ccc(Cl)s2)[C@H](OC(C)=O)C[C@@H]1O [Example 102, Acetic Acid (Z)-8-{(1R,2R,3R,5S)-3-acetoxy-2-[(S)-(E)-5-(5-chloro-thiophen-2-yl)-3-hydroxy-pent-1-enyl]-5-hydroxy-cyclopentyl}-2-oxo-oct-6-enyl Ester], the ocular hypotensive effect (Dog intraocular pressure) is reported as “pronounced ocular hypotensive effect”.

In the case of CCCCC[C@H](O)/C=C/[C@@H]1[C@@H](C/C=C\CCCC(=O)OC(C)C)[C@@H](O)C[C@H]1O [isopropyl ester of PGF2α], the “hypotensive potency versus parent compound” value (intraocular pressure) is given as “significantly greater hypotensive potency than the parent compound” and the ocular side effects (ocular surface) is given as “ocular surface (conjunctival) hyperemia and foreign-body sensation”.
